The subject of one data set is 293T. Description: Nucleoside uptake assay (3H-Thymidine), IC50 relative to DMSO control. Type of data set: cell-based. As to conditions: 293T cells; Table 17. As for the experimental part: Nucleoside Uptake Assay (uptake). Nuceloside uptake assays were performed with using 3H-Thymidine as described in Guo et al. (2018) Nat. Chem, 11:254-63. Specific cell lines are indicated in each assay and cultured in complete growth media. Activity is scored according to the IC50 values relative to DMSO control. “Low” indicates an IC50 greater than 600 nM, “Medium” indicates an IC50 between 300 nM and 600 nM “High” indicates an IC50 less than 300 nM. “Rel.Uptake” refers to uptake activity characterization relative to a single concentration assay. “Low” indicates a response greater than 0.6 times the activity relative to DMSO, “Medium” indicates a response between 0.6 and 0.3 times the activity relative to DMSO, “High” indicates a response less than 0.3 times the activity relative to DMSO.

Data set [1] is described as follows: Aqueous solubility in PBS solution. As to conditions: aqueous buffer. Type of data set: physicochemical. On the procedure: Compound 1593 is synthesized according to Scheme 42. The aqueous solubility of compound 1593 and its counterpart structure without carboxylic acid substitutent, compound 1594, is shown in Table 18. Without the carboxylic acid substitutent, compound 1594 merely has a solubility of about 0.1 mg/mL in PBS solution.

Data set [2] can be described thus: Nucleoside uptake assay, single concentration (Rel.Uptake), response relative to DMSO; cell line indicated in each table. Type of data set: cell-based. As to conditions: 293 T cells, nucleoside uptake at single concentration.
In a further data set the test system is Sprague Dawley Rats. Description: Rat Renal Ischemia-Reperfusion model. Type of data set: in vivo. As to conditions: compound given 30 min prior to right nephrectomy and left renal clamping, 24 hours of reperfusion. As for the experimental part: Briefly, Sprague Dawley Rats were treated test compound 30 min prior to a right nephrectomy and with underwent clamping of the left renal clamping for 15 mins. After 24 hours of reperfusion, blood was collected to measure biomarkers for kidney damage and the kidney was removed for histology. […] SHAM indicates an animal group with right nephrectomy without ischemic injury. VE indicates vehicle. DPA indicates dipyridamole administered in a dosage of 10 mg/kg. Compound 1593 was administered at a high dosage (12 mg/kg) or a low dosage (4 mg/kg). Compound 1594 was administered at 4 mg/kg.

[3] abbreviates: read-out: solubility in PBS solution.

pIC50: −log10 of the molar value. Converted amounts (≈) assume the structure as drawn. Where two headings read alike, the source gives them in different places.

As a reminder, the pIC50 is −log10 of the IC50, conventionally taken in molar units. As a reminder, the solubility is the dissolved amount per volume that the medium holds. In the case of `COc1ccc(CC[C@H]2OC(=O)[C@@H]3CCCCN3C(=O)C(=O)C(C)(C)COC(=O)/C=C/CCN(C)C(=O)[C@H](CC(C)C)N(C)C(=O)[C@H]3CCCN3C(=O)[C@H](Cc3ccc(OCC(=O)O)cc3)NC(=O)[C@H](c3ccccc3)NC(=O)CCC(=O)Nc3cccc2c3)cc1OC` [Compound 1593], the pIC50 in the data set on 293T was > 6.52. Further, the solubility was 3.5 mg/mL (≈ 2700 µM) in data set [1] (PBS, read-out: Solubility) and ~3.5 mg/mL (≈ 2700 µM) in data set [1] (setting [3]). In addition, in data set [2], the “Rel. Uptake, 293 T” value is given as “High (“High” indicates a response less than 0.3 times the activity relative to DMSO)”. Also, the “efficacy in Rat Renal Ischemia-Reperfusion model” value in the data set on Sprague Dawley Rats is given as “efficacious”.
As to `COc1ccc(CC[C@H]2OC(=O)[C@@H]3CCCCN3C(=O)C(=O)C(C)(C)COC(=O)/C=C/CCN(C)C(=O)[C@H](CC(C)C)N(C)C(=O)[C@H]3CCCN3C(=O)[C@H](Cc3ccccc3)NC(=O)[C@H](c3ccccc3)NC(=O)CCC(=O)Nc3cccc2c3)cc1OC` [Compound 1594], the solubility in data set [1] (PBS, read-out: Solubility) is > 0.1 mg/mL; in data set [1] (setting [3]), ~0.1 mg/mL (≈ 81.7 µM). Besides, in data set [2], the “Rel. Uptake, 293 T” value is recorded as “Low (“Low” indicates a response greater than 0.6 times the activity relative to DMSO)”. Besides, in the data set with Sprague Dawley Rats, the “efficacy in Rat Renal Ischemia-Reperfusion model” value was “efficacious”.
